Measurements as given in US5466450A, “Antiviral antibiotic BU-4224V” (priority 1993, dated 1995).
≈ marks a conversion by molar mass, not a printed value.

Key:
Assay type in all cases: cell-based
[1] = test system: herpes simplex virus type 1 (KOS strain); assay: Plaque reduction assay, HSV-1 infection in Vero cells; settings: Human alphaherpesvirus 1, HSV-1, Vero cells, read-out: ID50 (the source's name)
Procedure: (§1) Antiviral activity for each component of BU-4224V was evaluated by the dye uptake and the plaque reduction assay using herpes simplex virus type 1 (KOS strain) infection in Vero cells. In the dye uptake assay, 200 μl of the Vero cell suspension containing 1.6×10^4 cells was poured into each well of 96-well microplates, and then 50 μl of medium containing a test compound at various concentrations was added to each well. The viral suspension (50 μl ) containing approximately 30X TCID50 was inoculated to each well. For cytotoxicity tests, the same set of wells without viruses were prepared. After incubation at 37° C. for 72 hours under the humidified 5% CO2 -95% air environment, the degree of inhibition of the virus-induced cytopathic effect and the drug-induced cytotoxicity were determined by means of the uptake of neutral red. […] Acyclovir was used as a reference compound of anti-HSV activity. The antiviral activity of BU-4224V was also evaluated by the conventional plaque reduction assay method using a 24-well microplate.

[2] = test system: herpes simplex virus type 1 (KOS strain); assay: Dye uptake assay, HSV-1 infection in Vero cells; settings: Human alphaherpesvirus 1, HSV-1, Vero cells, 72 hours, read-out: ID50 (the source's name)
Procedure: as §1

[3] = Minimal toxic dose in the plaque reduction assay; settings: monkey, HSV-Vero cells, read-out: MTD (minimal toxic dose)
Procedure: as §1

in vitro = settings: monkey, vero cells
Procedure: as §1

SMILES: Nc1nc2c(ncn2COCCO)c(=O)[nH]1 [Acyclovir]
- IC50 [1]: 0.27 µg/mL (≈ 1.2 µM)
- IC50 [2]: 0.09 µg/mL (≈ 0.4 µM)
- MCC [3]: > 100 µg/mL
- CC50 at 72 h (in vitro): > 100 µg/mL
